Measured values: ChEMBL document CHEMBL5291721, “A preclinical secondary pharmacology resource illuminates target-adverse drug reaction associations of marketed drugs” (Nat Commun, 2023)

How the values were obtained:
[1] = molecular target: Melanocortin receptor 4 (Homo sapiens, UniProt P32245)
[2] = molecular target: T1, Alpha-2B adrenergic receptor (Homo sapiens, UniProt P18089)
T1 sequence (P18089 whole entry): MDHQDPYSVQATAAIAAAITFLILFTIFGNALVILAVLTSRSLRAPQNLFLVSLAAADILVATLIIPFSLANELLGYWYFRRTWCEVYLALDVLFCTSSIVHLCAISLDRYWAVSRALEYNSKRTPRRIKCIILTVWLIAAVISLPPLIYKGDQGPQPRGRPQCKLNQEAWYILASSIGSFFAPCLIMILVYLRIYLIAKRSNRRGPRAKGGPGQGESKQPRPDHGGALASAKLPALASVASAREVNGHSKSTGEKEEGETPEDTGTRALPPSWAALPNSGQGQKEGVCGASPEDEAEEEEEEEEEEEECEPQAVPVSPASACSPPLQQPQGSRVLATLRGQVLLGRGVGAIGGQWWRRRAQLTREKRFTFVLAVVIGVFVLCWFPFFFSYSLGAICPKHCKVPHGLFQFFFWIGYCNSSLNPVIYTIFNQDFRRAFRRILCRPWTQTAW

[3] = molecular target: T2, Muscarinic acetylcholine receptor M2 (Homo sapiens, UniProt P08172)
T2 sequence (P08172 whole entry): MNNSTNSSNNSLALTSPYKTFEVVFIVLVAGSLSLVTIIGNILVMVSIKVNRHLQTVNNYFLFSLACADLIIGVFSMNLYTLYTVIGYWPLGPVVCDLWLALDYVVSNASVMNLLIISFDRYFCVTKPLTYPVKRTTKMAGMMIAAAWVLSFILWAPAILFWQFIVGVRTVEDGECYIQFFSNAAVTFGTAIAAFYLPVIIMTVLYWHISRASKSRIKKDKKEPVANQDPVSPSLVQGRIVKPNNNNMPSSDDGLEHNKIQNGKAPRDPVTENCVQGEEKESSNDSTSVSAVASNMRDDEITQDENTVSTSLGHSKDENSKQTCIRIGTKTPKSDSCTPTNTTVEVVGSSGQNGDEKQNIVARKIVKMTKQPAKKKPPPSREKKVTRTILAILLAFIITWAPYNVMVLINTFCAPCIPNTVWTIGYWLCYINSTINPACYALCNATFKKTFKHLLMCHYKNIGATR

[4] = molecular target: T3, Amine oxidase [flavin-containing] A (Homo sapiens, UniProt P21397); type: functional
T3 sequence (P21397 whole entry): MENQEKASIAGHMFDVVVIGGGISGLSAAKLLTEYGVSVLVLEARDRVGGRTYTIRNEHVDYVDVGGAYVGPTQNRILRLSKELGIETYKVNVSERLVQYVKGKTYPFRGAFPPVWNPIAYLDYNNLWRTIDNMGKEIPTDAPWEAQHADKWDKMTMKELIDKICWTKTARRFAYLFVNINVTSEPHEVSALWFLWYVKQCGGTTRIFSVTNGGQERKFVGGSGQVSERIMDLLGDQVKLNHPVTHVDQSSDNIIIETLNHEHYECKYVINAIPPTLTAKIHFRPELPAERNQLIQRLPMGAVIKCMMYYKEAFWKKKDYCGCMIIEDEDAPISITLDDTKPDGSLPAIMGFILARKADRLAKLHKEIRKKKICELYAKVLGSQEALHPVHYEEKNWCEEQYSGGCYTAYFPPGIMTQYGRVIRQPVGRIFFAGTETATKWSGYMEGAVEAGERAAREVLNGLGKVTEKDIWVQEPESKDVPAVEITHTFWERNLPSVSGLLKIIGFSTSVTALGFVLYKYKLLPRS

[5] = molecular target: cGMP-inhibited 3',5'-cyclic phosphodiesterase 3A (Homo sapiens, UniProt Q14432); type: functional
Sequence of cGMP-inhibited 3',5'-cyclic phosphodiesterase 3A (Q14432 whole entry): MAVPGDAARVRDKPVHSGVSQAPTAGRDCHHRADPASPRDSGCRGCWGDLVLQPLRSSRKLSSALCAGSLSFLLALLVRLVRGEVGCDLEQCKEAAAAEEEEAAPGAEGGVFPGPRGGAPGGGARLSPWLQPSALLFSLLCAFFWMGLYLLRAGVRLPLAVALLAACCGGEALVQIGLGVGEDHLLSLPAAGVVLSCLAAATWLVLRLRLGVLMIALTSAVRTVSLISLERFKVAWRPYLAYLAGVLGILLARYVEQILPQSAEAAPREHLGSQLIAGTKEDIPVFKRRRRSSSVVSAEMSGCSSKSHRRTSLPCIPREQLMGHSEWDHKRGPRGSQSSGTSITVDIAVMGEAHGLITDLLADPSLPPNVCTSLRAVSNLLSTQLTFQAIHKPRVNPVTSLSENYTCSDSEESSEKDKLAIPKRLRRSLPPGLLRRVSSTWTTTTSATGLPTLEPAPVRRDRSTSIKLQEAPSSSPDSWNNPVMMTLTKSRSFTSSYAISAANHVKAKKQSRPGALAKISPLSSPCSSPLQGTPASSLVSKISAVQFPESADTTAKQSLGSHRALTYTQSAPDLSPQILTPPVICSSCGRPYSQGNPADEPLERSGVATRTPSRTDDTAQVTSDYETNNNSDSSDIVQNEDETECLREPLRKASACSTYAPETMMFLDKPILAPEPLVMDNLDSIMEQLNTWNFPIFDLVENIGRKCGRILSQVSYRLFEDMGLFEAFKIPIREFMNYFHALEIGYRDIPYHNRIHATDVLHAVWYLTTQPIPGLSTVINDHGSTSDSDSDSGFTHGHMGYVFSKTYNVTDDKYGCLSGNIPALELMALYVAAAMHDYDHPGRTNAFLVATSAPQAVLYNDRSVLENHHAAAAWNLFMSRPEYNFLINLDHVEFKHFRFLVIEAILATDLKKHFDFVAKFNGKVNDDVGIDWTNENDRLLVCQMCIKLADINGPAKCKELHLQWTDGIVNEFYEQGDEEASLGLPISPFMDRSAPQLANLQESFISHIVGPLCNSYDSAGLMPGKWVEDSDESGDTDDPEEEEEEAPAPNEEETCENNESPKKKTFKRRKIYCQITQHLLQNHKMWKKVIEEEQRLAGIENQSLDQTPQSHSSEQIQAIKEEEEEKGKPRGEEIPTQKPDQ

[6] = molecular target: 3',5'-cyclic-AMP phosphodiesterase 4A (Homo sapiens, UniProt P27815); type: functional
Sequence of 3',5'-cyclic-AMP phosphodiesterase 4A (P27815 whole entry): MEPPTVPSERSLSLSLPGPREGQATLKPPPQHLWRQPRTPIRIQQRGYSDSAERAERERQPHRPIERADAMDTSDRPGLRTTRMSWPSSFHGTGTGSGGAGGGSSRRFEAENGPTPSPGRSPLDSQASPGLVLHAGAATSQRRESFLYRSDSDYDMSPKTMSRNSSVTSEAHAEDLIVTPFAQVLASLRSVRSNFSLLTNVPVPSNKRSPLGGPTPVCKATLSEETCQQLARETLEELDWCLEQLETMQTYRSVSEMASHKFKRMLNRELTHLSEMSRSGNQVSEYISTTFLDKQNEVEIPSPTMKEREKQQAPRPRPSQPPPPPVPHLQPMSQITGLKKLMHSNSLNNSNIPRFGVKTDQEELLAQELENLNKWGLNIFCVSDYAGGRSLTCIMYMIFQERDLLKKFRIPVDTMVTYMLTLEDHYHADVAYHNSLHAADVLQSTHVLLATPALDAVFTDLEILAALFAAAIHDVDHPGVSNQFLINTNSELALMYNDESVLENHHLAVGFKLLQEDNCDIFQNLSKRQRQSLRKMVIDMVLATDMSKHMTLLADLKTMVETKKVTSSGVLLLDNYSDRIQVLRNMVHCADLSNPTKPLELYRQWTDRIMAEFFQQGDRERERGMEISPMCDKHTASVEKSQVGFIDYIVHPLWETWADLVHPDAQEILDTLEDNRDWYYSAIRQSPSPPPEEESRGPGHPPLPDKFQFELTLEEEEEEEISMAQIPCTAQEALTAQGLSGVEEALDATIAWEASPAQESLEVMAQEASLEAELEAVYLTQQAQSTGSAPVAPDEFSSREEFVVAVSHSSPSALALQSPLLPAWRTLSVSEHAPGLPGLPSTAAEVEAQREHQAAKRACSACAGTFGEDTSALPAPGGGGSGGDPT

[7] = molecular target: Prostaglandin G/H synthase 1 (Homo sapiens, UniProt P23219); type: functional
Sequence of Prostaglandin G/H synthase 1 (P23219 whole entry): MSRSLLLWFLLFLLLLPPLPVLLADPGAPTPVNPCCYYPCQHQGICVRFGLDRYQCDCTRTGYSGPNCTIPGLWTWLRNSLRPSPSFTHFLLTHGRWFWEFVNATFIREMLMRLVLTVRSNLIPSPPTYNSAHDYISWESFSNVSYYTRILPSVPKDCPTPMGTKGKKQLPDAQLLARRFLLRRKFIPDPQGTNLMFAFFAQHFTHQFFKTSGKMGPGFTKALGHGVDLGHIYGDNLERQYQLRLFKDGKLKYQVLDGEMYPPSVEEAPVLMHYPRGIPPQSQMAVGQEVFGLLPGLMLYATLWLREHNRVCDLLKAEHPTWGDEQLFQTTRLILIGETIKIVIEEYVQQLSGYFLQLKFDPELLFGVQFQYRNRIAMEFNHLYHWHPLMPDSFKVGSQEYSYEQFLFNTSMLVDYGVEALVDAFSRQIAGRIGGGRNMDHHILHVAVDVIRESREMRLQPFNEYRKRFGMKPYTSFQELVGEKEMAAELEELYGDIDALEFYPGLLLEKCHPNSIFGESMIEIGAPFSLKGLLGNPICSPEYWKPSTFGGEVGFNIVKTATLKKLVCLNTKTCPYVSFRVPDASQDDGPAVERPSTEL
Further: assay procedure not described here.

Sequence of Melanocortin receptor 4 (P32245 whole entry): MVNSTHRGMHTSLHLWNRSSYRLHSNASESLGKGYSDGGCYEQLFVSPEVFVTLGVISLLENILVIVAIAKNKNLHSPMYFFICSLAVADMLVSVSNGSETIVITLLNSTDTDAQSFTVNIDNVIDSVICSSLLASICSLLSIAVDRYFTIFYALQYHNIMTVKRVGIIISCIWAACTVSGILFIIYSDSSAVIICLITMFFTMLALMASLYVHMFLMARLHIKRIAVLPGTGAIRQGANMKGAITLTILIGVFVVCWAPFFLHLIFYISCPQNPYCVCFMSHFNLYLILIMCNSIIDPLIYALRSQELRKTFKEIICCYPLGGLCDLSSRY

Structure (SMILES)	AC50 [1] [µM]	AC50 [2] [µM]	also measured
CNC1=Nc2ccc(Cl)cc2C(c2ccccc2)=[N+]([O-])C1 [CHLORDIAZEPOXIDE]	> 30	–	–
CCC[C@H](NC(=O)[C@@H]1[C@H]2CCC[C@H]2CN1C(=O)[C@@H](NC(=O)[C@@H](NC(=O)c1cnccn1)C1CCCCC1)C(C)(C)C)C(=O)C(=O)NC1CC1	> 30	> 10	–
CCCCC1C(=O)N(c2ccccc2)N(c2ccccc2)C1=O [PHENYLBUTAZONE]	> 30	–	–
CC(CCc1ccc(O)cc1)NCCc1ccc(O)c(O)c1 (configuration not stated) [DOBUTAMINE]	> 30	–	–
C[C@]12CC[C@@H]3c4ccc(O)cc4C[C@@H](CCCCCCCCC[S+]([O-])CCCC(F)(F)C(F)(F)F)[C@H]3[C@@H]1CC[C@@H]2O (some centres not stated) [FULVESTRANT]	–	> 30	–
OC1(c2ccc(Cl)cc2)c2ccccc2C2=NCCN21 (configuration not stated) [MAZINDOL]	> 30	> 30	–
O=[N+]([O-])c1ccc(O)c2ncccc12 [NITROXOLINE]	–	8.8	AC50 [3]: > 30 µM; AC50 [4]: > 30 µM; AC50 [5]: > 30 µM; AC50 [6]: > 30 µM; AC50 [7]: > 30 µM
CC1OC2(CS1)CN1CCC2CC1 (configuration not stated) [CEVIMELINE]	> 10	> 30	–
Oc1ccc2c(c1)CC[C@H](c1ccccc1)[C@@H]2c1ccc(OCCN2CCCC2)cc1 [LASOFOXIFENE]	–	8.2	–
C[C@H](Cc1ccc(O)c(O)c1)[C@@H](C)Cc1ccc(O)c(O)c1 [MASOPROCOL]	> 10	8.1	–
CC(C)COCC(CN(Cc1ccccc1)c1ccccc1)N1CCCC1 (configuration not stated) [BEPRIDIL]	15.4	6.2	–
C[C@]12CCC(=O)C(O)=C1CC[C@@H]1[C@@H]2CC[C@]2(C)C(=O)CC[C@@H]12 [FORMESTANE]	–	> 30	–
Cc1ccccc1N1CCN(CCc2nnc3n2CCCC3)CC1 [DAPIPRAZOLE]	–	–	AC50 [3]: 7.61 µM; AC50 [4]: > 30 µM; AC50 [5]: > 30 µM; AC50 [6]: > 30 µM; AC50 [7]: > 30 µM
CN(C)CCCNc1c2ccccc2nc2cccc([N+](=O)[O-])c12 [NITRACRINE]	–	22	–
CC(C)(C)C(=O)OCC(=O)[C@H]1CC[C@H]2[C@@H]3CCC4=CC(=O)CC[C@]4(C)[C@H]3CC[C@]12C [DESOXYCORTICOSTERONE PIVALATE]	> 10	> 10	–
[H]/N=C(/N)N/C(=N/[H])NCCc1ccccc1 [PHENFORMIN]	> 30	15	–
CC(C)NCC(O)c1ccc(O)c(O)c1 (configuration not stated) [ISOPROTERENOL]	> 30	–	–
CNCc1ccc(-c2[nH]c3cc(F)cc4c3c2CCNC4=O)cc1 [RUCAPARIB]	> 30	–	–
Cc1noc(NS(=O)(=O)c2ccc(N)cc2)c1C [SULFISOXAZOLE]	> 10	–	–
Cc1cc2cc3c(C)cc(=O)oc3c(C)c2o1 [TRIOXSALEN]	> 10	–	–
CC(=O)O[C@]1(C(C)=O)CC[C@H]2[C@@H]3C=C(Cl)C4=CC(=O)CC[C@]4(C)[C@H]3CC[C@@]21C [CHLORMADINONE ACETATE]	–	–	AC50 [3]: 25.3 µM; AC50 [4]: > 30 µM; AC50 [5]: > 30 µM; AC50 [6]: > 30 µM; AC50 [7]: > 30 µM
Cc1c(N(C)CS(=O)(=O)O)c(=O)n(-c2ccccc2)n1C [METAMIZOLE]	–	–	AC50 [3]: > 30 µM; AC50 [4]: > 30 µM; AC50 [5]: > 30 µM; AC50 [6]: > 30 µM; AC50 [7]: 3.66 µM
C=CCNc1nc(NCC=C)nc(N2CCN(C(c3ccc(F)cc3)c3ccc(F)cc3)CC2)n1 [ALMITRINE]	–	> 30	–
C/N=C(\NC)NCc1ccccc1 [BETHANIDINE]	–	> 30	–
CC(C)[C@H](N)C(=O)OCC(CO)OCn1cnc2c(=O)nc(N)[nH]c21 (some centres not stated) [VALGANCICLOVIR]	> 30	> 30	–
CC(=O)N[C@@H](CS)C(=O)O [ACETYLCYSTEINE]	–	> 10	–
CC(C(=O)O)c1ccc(-c2ccccc2)c(F)c1 (configuration not stated) [FLURBIPROFEN]	> 10	–	AC50 [3]: > 30 µM; AC50 [4]: > 30 µM; AC50 [5]: > 30 µM; AC50 [6]: > 30 µM

Structure (SMILES)	AC50 [1] [µM]	AC50 [2] [µM]	also measured
CCC1(c2ccccc2)CCC(=O)NC1=O (configuration not stated) [GLUTETHIMIDE]	> 10	> 10	–
COc1cc(N)c(Cl)cc1C(=O)NC1CCN(Cc2ccccc2)CC1 [CLEBOPRIDE]	–	18	–
Nc1ncn([C@H]2C[C@H](O)[C@@H](CO)O2)c(=O)n1 [DECITABINE]	> 30	> 30	–
Cc1cccc(N2CC(CO)OC2=O)c1 (configuration not stated) [TOLOXATONE]	–	> 30	–
CN1CCC(=C2c3ccccc3CCc3cccnc32)CC1 [AZATADINE]	> 30	> 10	–
CCCC(CCC)C(N)=O [VALPROMIDE]	> 30	> 10	–
C=C1CC[C@H](O)C/C1=C/C=C1\CCC[C@]2(C)[C@@H]([C@H](C)/C=C/[C@H](C)C(C)C)CC[C@@H]12 [ERGOCALCIFEROL]	–	–	AC50 [3]: > 30 µM; AC50 [4]: > 30 µM; AC50 [5]: > 30 µM; AC50 [6]: > 30 µM; AC50 [7]: > 30 µM
Cc1cc(C(C)(C)C)cc(C)c1CC1=NCCN1 [XYLOMETAZOLINE]	–	0.208	–
C#C[C@]1(OC(C)=O)CC[C@H]2[C@@H]3CCC4=C/C(=N/O)CC[C@@H]4[C@H]3CC[C@@]21CC [NORGESTIMATE]	–	> 30	–
COC(=O)c1ccc(O)cc1 [METHYLPARABEN]	–	–	AC50 [3]: > 30 µM; AC50 [4]: > 30 µM; AC50 [5]: > 30 µM; AC50 [6]: > 30 µM; AC50 [7]: > 1 µM
COCC1=C(C(=O)O)N2C(=O)[C@@H](NC(=O)/C(=N\OC)c3csc(N)n3)[C@H]2SC1 [CEFPODOXIME]	–	> 30	–
Clc1ccc2c(N3CCN(CCCN4CCN(c5ccnc6cc(Cl)ccc56)CC4)CC3)ccnc2c1 [PIPERAQUINE]	–	> 30	–
CCOC(=O)c1cncn1[C@H](C)c1ccccc1 [ETOMIDATE]	> 10	> 10	–
O=C(O)c1cn(C2CC2)c2cc(N3CCNCC3)c(F)cc2c1=O [CIPROFLOXACIN]	> 30	–	AC50 [5]: > 30 µM; AC50 [6]: > 30 µM
CC12CC3CC(C)(C1)CC(N)(C3)C2 [MEMANTINE]	> 30	> 10	–
CC(C)(C)NC[C@H](O)COc1cccc2c1CCCC2=O [LEVOBUNOLOL]	–	–	AC50 [3]: > 30 µM; AC50 [4]: > 30 µM; AC50 [5]: > 30 µM; AC50 [6]: > 30 µM; AC50 [7]: > 30 µM
Clc1ccc(C(Cn2ccnc2)OCc2ccsc2Cl)c(Cl)c1 (configuration not stated) [TIOCONAZOLE]	> 30	> 30	–
CCCN[C@H]1CCc2nc(N)sc2C1 [PRAMIPEXOLE]	> 30	–	–
CCOC(=O)C1=C[C@]2(CC)CCCN3CCc4c(n1c1ccccc41)[C@@H]32 [VINPOCETINE]	–	2.4	–
CCC(=O)O[C@H]1CC[C@H]2[C@@H]3CCC4=CC(=O)CC[C@]4(C)[C@H]3CC[C@]12C [TESTOSTERONE PROPIONATE]	> 10	> 10	–
Cc1cnc(C(=O)NCCc2ccc(S(=O)(=O)NC(=O)NC3CCCCC3)cc2)cn1 [GLIPIZIDE]	> 30	–	AC50 [4]: > 30 µM; AC50 [5]: > 30 µM; AC50 [6]: > 30 µM
CCCCC(=O)O[C@]1(C(=O)CO)[C@@H](C)C[C@H]2[C@@H]3CCC4=CC(=O)C=C[C@]4(C)[C@@]3(F)[C@@H](O)C[C@@]21C [BETAMETHASONE VALERATE]	> 30	> 10	–
CCC(C)C(CC)C(N)=O (configuration not stated) [VALNOCTAMIDE]	–	> 30	–
CC1(C)S[C@@H]2[C@H](NC(=O)[C@H](N)c3ccccc3)C(=O)N2[C@H]1C(=O)OCOC(=O)[C@@H]1N2C(=O)C[C@H]2S(=O)(=O)C1(C)C [SULTAMICILLIN]	–	> 30	–
CCOC(=O)C1=C(C)NC(C)=C(C(=O)OC)C1c1cccc([N+](=O)[O-])c1 (configuration not stated) [NITRENDIPINE]	> 30	–	–
COc1ccc(CN(CCN(C)C)c2ccccn2)cc1 [PYRILAMINE]	–	–	AC50 [3]: 8.61 µM; AC50 [4]: > 30 µM; AC50 [5]: > 30 µM; AC50 [6]: > 30 µM; AC50 [7]: > 30 µM
